{"source": "patent US12077503B2", "about": "“Substituted cyclic amides and their use as herbicides” (FMC CORPORATION, priority 2015, dated 2024)", "format_in_all_cases": "in vivo", "key": {"corn (Zea mays) [1]": {"tested_on": "corn (Zea mays)", "assay": "Test G Post-Emergence Protocol", "settings": "Zea mays, post-emergence, 312 h", "summary_of_the_method": "(§1)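 Eight days post-sowing, plants received a spray of test compound (acetone/water 50:50, 0.5% Tween 20) at 15.625, 62.5 or 250 g/ha. Glasshouse regime thereafter: 24/16 °C, 14 h light, 65% humidity. Assessment after 13 days on a 0–100 damage scale.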"}, "[2]": {"tested_on": "velvetleaf (Abutilon theophrasti)", "assay": "Test G Post-Emergence Protocol", "settings": "Abutilon theophrasti, post-emergence, 312 h", "summary_of_the_method": "as §1"}, "[3]": {"tested_on": "ivy-leaved morning glory (Ipomoea hederacea)", "assay": "Test G Post-Emergence Protocol", "settings": "Ipomoea, post-emergence, 312 h", "summary_of_the_method": "as §1"}, "[4]": {"tested_on": "redroot pigweed (Amaranthus retroflexus)", "assay": "Test G Post-Emergence Protocol", "settings": "Amaranthus retroflexus, post-emergence, 312 h", "summary_of_the_method": "as §1"}, "[5]": {"tested_on": "giant foxtail (Setaria faberi)", "assay": "Test G Post-Emergence Protocol", "settings": "Setaria faberi, post-emergence, 312 h", "summary_of_the_method": "as §1"}, "[6]": {"tested_on": "barnyardgrass (Echinochloa crus-galli)", "assay": "Test G Post-Emergence Protocol", "settings": "Echinochloa crus-galli, post-emergence, 312 h", "summary_of_the_method": "as §1"}, "corn (Zea mays) [7]": {"tested_on": "corn (Zea mays)", "assay": "Test G Pre-Emergence Protocol", "settings": "Zea mays, pre-emergence, 312 h, evaluated after 13 days", "summary_of_the_method": "(§2)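 One day after sowing, pots are treated with a spray of test compound formulated in acetone/water 50:50 plus 0.5% Tween 20, giving 15.625, 62.5 or 250 g/ha. Evaluation on a 0–100 damage scale follows 13 days of glasshouse growth.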"}, "[8]": {"tested_on": "velvetleaf (Abutilon theophrasti)", "assay": "Test G Pre-Emergence Protocol", "settings": "Abutilon theophrasti, pre-emergence, 312 h, evaluated after 13 days", "summary_of_the_method": "as §2"}, "[9]": {"tested_on": "ivy-leaved morning glory (Ipomoea hederacea)", "assay": "Test G Pre-Emergence Protocol", "settings": "Ipomoea, pre-emergence, 312 h, evaluated after 13 days", "summary_of_the_method": "as §2"}, "[10]": {"tested_on": "redroot pigweed (Amaranthus retroflexus)", "assay": "Test G Pre-Emergence Protocol", "settings": "Amaranthus retroflexus, pre-emergence, 312 h, evaluated after 13 days", "summary_of_the_method": "as §2"}, "[11]": {"tested_on": "giant foxtail (Setaria faberi)", "assay": "Test G Pre-Emergence Protocol", "settings": "Setaria faberi, pre-emergence, 312 h, evaluated after 13 days", "summary_of_the_method": "as §2"}, "[12]": {"tested_on": "barnyardgrass (Echinochloa crus-galli)", "assay": "Test G Pre-Emergence Protocol", "settings": "Echinochloa crus-galli, pre-emergence, 312 h, evaluated after 13 days", "summary_of_the_method": "as §2"}}, "data": [{"molecule": "C=CCc1ccc(Cl)cc1NC(=O)[C@H]1C(=O)N(C)C[C@@H]1c1ccc(C(F)(F)F)cc1", "note": "(racemic) [Compound 1441]", "values": [{"measurement": "plant injury at 15.625 g/ha", "setting": "corn (Zea mays) [1]; 15.625 g ai/ha, evaluated after 13 days (100=total damage to plant; 0=no damage to plant), read-out: Corn damage rating", "value": 0, "unit": "%"}, {"measurement": "plant injury at 62.5 g/ha", "setting": "corn (Zea mays) [1]; 62.5 g ai/ha, evaluated after 13 days, read-out: Corn damage rating (100=total damage to plant; 0=no damage to plant)", "value": 0, "unit": "%"}, {"measurement": "plant injury at 250 g/ha", "setting": "corn (Zea mays) [1]; 250 g ai/ha, evaluated after 13 days, read-out: damage to plant, Corn (100=total damage to plant; 0=no damage to plant)", "value": 20, "unit": "%"}, {"measurement": "pest or weed control at 15.625 g/ha", "setting": "[2]; 15.625 g ai/ha, evaluated after 13 days (100=total damage to plant; 0=no damage to plant), read-out: Velvetleaf damage rating", "value": 0, "unit": "%"}, {"measurement": "pest or weed control at 62.5 g/ha", "setting": "[2]; 62.5 g ai/ha, evaluated after 13 days, read-out: Velvetleaf damage rating (100=total damage to plant; 0=no damage to plant)", "value": 0, "unit": "%"}, {"measurement": "pest or weed control at 250 g/ha", "setting": "[2]; 250 g ai/ha, evaluated after 13 days, read-out: damage to plant, Velvetleaf (100=total damage to plant; 0=no damage to plant)", "value": 0, "unit": "%"}, {"measurement": "pest or weed control at 15.625 g/ha", "setting": "[3]; 15.625 g ai/ha, evaluated after 13 days (100=total damage to plant; 0=no damage to plant), read-out: Morningglory, Ivy-leaved damage rating", "value": 0, "unit": "%"}, {"measurement": "pest or weed control at 62.5 g/ha", "setting": "[3]; 62.5 g ai/ha, evaluated after 13 days, read-out: Morningglory, Ivy-leaved damage rating (100=total damage to plant; 0=no damage to plant)", "value": 0, "unit": "%"}, {"measurement": "pest or weed control at 250 g/ha", "setting": "[3]; 250 g ai/ha, evaluated after 13 days, read-out: damage to plant, Morningglory, Ivy-leaved (100=total damage to plant; 0=no damage to plant)", "value": 0, "unit": "%"}, {"measurement": "pest or weed control at 15.625 g/ha", "setting": "[4]; 15.625 g ai/ha, evaluated after 13 days (100=total damage to plant; 0=no damage to plant), read-out: Pigweed, Redroot damage rating", "value": 0, "unit": "%"}, {"measurement": "pest or weed control at 62.5 g/ha", "setting": "[4]; 62.5 g ai/ha, evaluated after 13 days, read-out: Pigweed, Redroot damage rating (100=total damage to plant; 0=no damage to plant)", "value": 0, "unit": "%"}, {"measurement": "pest or weed control at 250 g/ha", "setting": "[4]; 250 g ai/ha, evaluated after 13 days, read-out: damage to plant, Pigweed, Redroot (100=total damage to plant; 0=no damage to plant)", "value": 0, "unit": "%"}, {"measurement": "pest or weed control at 15.625 g/ha", "setting": "[5]; 15.625 g ai/ha, evaluated after 13 days (100=total damage to plant; 0=no damage to plant), read-out: Foxtail, Giant damage rating", "value": 0, "unit": "%"}, {"measurement": "pest or weed control at 62.5 g/ha", "setting": "[5]; 62.5 g ai/ha, evaluated after 13 days, read-out: Foxtail, Giant damage rating (100=total damage to plant; 0=no damage to plant)", "value": 0, "unit": "%"}, {"measurement": "pest or weed control at 250 g/ha", "setting": "[5]; 250 g ai/ha, evaluated after 13 days, read-out: damage to plant, Foxtail, Giant (100=total damage to plant; 0=no damage to plant)", "value": 20, "unit": "%"}, {"measurement": "pest or weed control at 15.625 g/ha", "setting": "[6]; 15.625 g ai/ha, evaluated after 13 days (100=total damage to plant; 0=no damage to plant), read-out: Barnyardgrass damage rating", "value": 0, "unit": "%"}, {"measurement": "pest or weed control at 62.5 g/ha", "setting": "[6]; 62.5 g ai/ha, evaluated after 13 days, read-out: Barnyardgrass damage rating (100=total damage to plant; 0=no damage to plant)", "value": 0, "unit": "%"}, {"measurement": "pest or weed control at 250 g/ha", "setting": "[6]; 250 g ai/ha, evaluated after 13 days, read-out: damage to plant, Barnyardgrass (100=total damage to plant; 0=no damage to plant)", "value": 0, "unit": "%"}, {"measurement": "plant injury at 15.625 g/ha", "setting": "corn (Zea mays) [7]; 15.625 g ai/ha, read-out: Corn damage rating (100=total damage to plant; 0=no damage to plant)", "value": 0, "unit": "%"}, {"measurement": "plant injury at 62.5 g/ha", "setting": "corn (Zea mays) [7]; 62.5 g ai/ha, 100=total damage to plant, 0=no damage to plant, read-out: plant damage rating, Corn", "value": 0, "unit": "%"}, {"measurement": "plant injury at 250 g/ha", "setting": "corn (Zea mays) [7]; 250 g ai/ha, read-out: Corn damage rating (100=total damage to plant; 0=no damage to plant)", "value": 0, "unit": "%"}, {"measurement": "pest or weed control at 15.625 g/ha", "setting": "[8]; 15.625 g ai/ha, read-out: Velvetleaf damage rating (100=total damage to plant; 0=no damage to plant)", "value": 0, "unit": "%"}, {"measurement": "pest or weed control at 62.5 g/ha", "setting": "[8]; 62.5 g ai/ha, 100=total damage to plant, 0=no damage to plant, read-out: plant damage rating, Velvetleaf", "value": 0, "unit": "%"}, {"measurement": "pest or weed control at 250 g/ha", "setting": "[8]; 250 g ai/ha, read-out: Velvetleaf damage rating (100=total damage to plant; 0=no damage to plant)", "value": 0, "unit": "%"}, {"measurement": "pest or weed control at 15.625 g/ha", "setting": "[9]; 15.625 g ai/ha, read-out: Morning-glory, Ivy-leaved damage rating (100=total damage to plant; 0=no damage to plant)", "value": 0, "unit": "%"}, {"measurement": "pest or weed control at 62.5 g/ha", "setting": "[9]; 62.5 g ai/ha, 100=total damage to plant, 0=no damage to plant, read-out: plant damage rating, Morningglory, Ivy-leaved", "value": 0, "unit": "%"}, {"measurement": "pest or weed control at 250 g/ha", "setting": "[9]; 250 g ai/ha, read-out: Morningglory, Ivy-leaved damage rating (100=total damage to plant; 0=no damage to plant)", "value": 0, "unit": "%"}, {"measurement": "pest or weed control at 15.625 g/ha", "setting": "[10]; 15.625 g ai/ha, read-out: Pigweed, Redroot damage rating (100=total damage to plant; 0=no damage to plant)", "value": 0, "unit": "%"}, {"measurement": "pest or weed control at 62.5 g/ha", "setting": "[10]; 62.5 g ai/ha, 100=total damage to plant, 0=no damage to plant, read-out: plant damage rating, Pigweed, Redroot", "value": 0, "unit": "%"}, {"measurement": "pest or weed control at 250 g/ha", "setting": "[10]; 250 g ai/ha, read-out: Pigweed, Redroot damage rating (100=total damage to plant; 0=no damage to plant)", "value": 0, "unit": "%"}, {"measurement": "pest or weed control at 15.625 g/ha", "setting": "[11]; 15.625 g ai/ha, read-out: Foxtail, Giant damage rating (100=total damage to plant; 0=no damage to plant)", "value": 0, "unit": "%"}, {"measurement": "pest or weed control at 62.5 g/ha", "setting": "[11]; 62.5 g ai/ha, 100=total damage to plant, 0=no damage to plant, read-out: plant damage rating, Foxtail, Giant", "value": 0, "unit": "%"}, {"measurement": "pest or weed control at 250 g/ha", "setting": "[11]; 250 g ai/ha, read-out: Foxtail, Giant damage rating (100=total damage to plant; 0=no damage to plant)", "value": 0, "unit": "%"}, {"measurement": "pest or weed control at 15.625 g/ha", "setting": "[12]; 15.625 g ai/ha, read-out: Barnyard grass damage rating (100=total damage to plant; 0=no damage to plant)", "value": 0, "unit": "%"}, {"measurement": "pest or weed control at 62.5 g/ha", "setting": "[12]; 62.5 g ai/ha, 100=total damage to plant, 0=no damage to plant, read-out: plant damage rating, Barnyardgrass", "value": 0, "unit": "%"}, {"measurement": "pest or weed control at 250 g/ha", "setting": "[12]; 250 g ai/ha, read-out: Barnyardgrass damage rating (100=total damage to plant; 0=no damage to plant)", "value": 0, "unit": "%"}]}]}
